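48-hour exposure; five concentrations; linearly interpolated endpoints. Here, GI50 denotes the concentration required for 50% inhibition of growth.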 Activity calls are given as the source filed them. Cut-off read from the data, not from the text of the source: active = GI50 up to about 1.1 µM and inactive = higher.
Legend:
Assay in all cases: inhibition of tumour cell growth, NCI panel, 48 h
PC-3 = test system: PC-3
TK-10 = test system: TK-10
HL-60 = test system: HL-60
HT-29 = test system: HT-29
HCC 2998 = test system: HCC 2998
KM12 = test system: KM12
COLO 205 = test system: COLO 205
UACC-257 = test system: UACC-257
SF-539 = test system: SF-539
SN12C = test system: SN12C
NCI/ADR-RES = test system: NCI/ADR-RES
UACC-62 = test system: UACC-62
OVCAR-8 = test system: OVCAR-8
M14 = test system: M14
K562 = test system: K562
SNB-19 = test system: SNB-19
A549 = test system: A549
Malme-3M = test system: Malme-3M

SMILES: CC1OC(OC2C(OC(=O)[C@@H]3CC(C)(C)C[C@@H]4C5=CC[C@@H]6[C@@]7(C)C[C@H](O)[C@H](OC8OC(CO)C(O)C(O)C8O)[C@@](C)(CO)C7[C@H](O)C[C@@]6(C)[C@]5(C)C[C@@H](O)[C@H]43)OCC(O)C2O)C(O)C(O)C1O (some centres not stated)
- GI50 (PC-3): > 15 µM (inactive)
- GI50 (TK-10): > 15 µM (inactive)
- GI50 (HL-60): > 15 µM (inactive)
- GI50 (HT-29): 11.5 µM (inactive)
- GI50 (HCC 2998): 8.69 µM (inactive)
- GI50 (KM12): > 15 µM (inactive)
- GI50 (COLO 205): 6.28 µM (inactive)
- GI50 (UACC-257): > 15 µM (inactive)
- GI50 (SF-539): > 15 µM (inactive)
- GI50 (SN12C): 5.57 µM (inactive)
- GI50 (NCI/ADR-RES): > 15 µM (inactive)
- GI50 (UACC-62): > 15 µM (inactive)
- GI50 (OVCAR-8): > 15 µM (inactive)
- GI50 (M14): > 15 µM (inactive)
- GI50 (K562): > 15 µM (inactive)
- GI50 (SNB-19): > 15 µM (inactive)

SMILES: CCOC(=O)/C=C/C(Br)=C(Br)/C=C/C(=O)OCC
- GI50 (PC-3): 13.5 µM (inactive)
- GI50 (TK-10): 14.2 µM (inactive)
- GI50 (HL-60): 5.85 µM (inactive)
- GI50 (HT-29): 14.8 µM (inactive)
- GI50 (HCC 2998): 20.6 µM (inactive)
- GI50 (KM12): 16.6 µM (inactive)
- GI50 (COLO 205): 16.4 µM (inactive)
- GI50 (UACC-257): 18.2 µM (inactive)
- GI50 (SN12C): 7.85 µM (inactive)
- GI50 (NCI/ADR-RES): 11.4 µM (inactive)
- GI50 (A549): 22.5 µM (inactive)
- GI50 (UACC-62): 15.4 µM (inactive)
- GI50 (Malme-3M): 3.4 µM (inactive)
- GI50 (OVCAR-8): 4.79 µM (inactive)
- GI50 (M14): 13.3 µM (inactive)
- GI50 (K562): 2.65 µM (inactive)
- GI50 (SNB-19): 17.5 µM (inactive)

SMILES: CNC(=O)c1nn[nH]c1O
- GI50 (PC-3): > 100 µM (inactive)
- GI50 (HL-60): > 100 µM (inactive)
- GI50 (HT-29): > 100 µM (inactive)
- GI50 (HCC 2998): > 100 µM (inactive)
- GI50 (KM12): > 100 µM (inactive)
- GI50 (COLO 205): > 100 µM (inactive)
- GI50 (UACC-257): > 100 µM (inactive)
- GI50 (SN12C): > 100 µM (inactive)
- GI50 (NCI/ADR-RES): > 100 µM (inactive)
- GI50 (A549): > 100 µM (inactive)
- GI50 (UACC-62): > 100 µM (inactive)
- GI50 (Malme-3M): > 100 µM (inactive)
- GI50 (OVCAR-8): > 100 µM (inactive)
- GI50 (M14): > 100 µM (inactive)
- GI50 (K562): > 100 µM (inactive)
- GI50 (SNB-19): > 100 µM (inactive)

SMILES: O=C1/C(=C\c2ccccc2)C(NC2CCCCC2)c2ccccc21 (configuration not stated)
- GI50 (PC-3): 1.78 µM (inactive)
- GI50 (TK-10): 1.29 µM (inactive)
- GI50 (HL-60): 0.883 µM (active)
- GI50 (HT-29): 1.42 µM (inactive)
- GI50 (KM12): 4.44 µM (inactive)
- GI50 (COLO 205): 1.55 µM (inactive)
- GI50 (UACC-257): 1.29 µM (inactive)
- GI50 (SF-539): 1 µM (active)
- GI50 (SN12C): 1.55 µM (inactive)
- GI50 (NCI/ADR-RES): 3.65 µM (inactive)
- GI50 (A549): 4.05 µM (inactive)
- GI50 (UACC-62): 2.38 µM (inactive)
- GI50 (Malme-3M): 1.46 µM (inactive)
- GI50 (OVCAR-8): 2.12 µM (inactive)
- GI50 (M14): 1.54 µM (inactive)
- GI50 (K562): 0.46 µM (active)
- GI50 (SNB-19): 10.5 µM (inactive)

SMILES: CCC[C@@H]1C(=O)N=C(N)N1C(=O)OCc1ccccc1
- GI50 (PC-3): > 100 µM (inactive)
- GI50 (TK-10): > 100 µM (inactive)
- GI50 (HL-60): > 100 µM (inactive)
- GI50 (HT-29): > 100 µM (inactive)
- GI50 (HCC 2998): > 100 µM (inactive)
- GI50 (KM12): > 100 µM (inactive)
- GI50 (COLO 205): > 100 µM (inactive)
- GI50 (UACC-257): > 100 µM (inactive)
- GI50 (SN12C): > 100 µM (inactive)
- GI50 (NCI/ADR-RES): > 100 µM (inactive)
- GI50 (UACC-62): > 100 µM (inactive)
- GI50 (Malme-3M): > 100 µM (inactive)
- GI50 (OVCAR-8): > 100 µM (inactive)
- GI50 (K562): > 100 µM (inactive)
- GI50 (SNB-19): > 100 µM (inactive)

SMILES: CC1=CC2=C(C(N)=O)C(=O)OC2(C)C(c2ccccc2)C1 (configuration not stated)
- GI50 (PC-3): > 100 µM (inactive)
- GI50 (TK-10): > 100 µM (inactive)
- GI50 (HL-60): > 100 µM (inactive)
- GI50 (HT-29): > 100 µM (inactive)
- GI50 (KM12): > 100 µM (inactive)
- GI50 (UACC-257): > 100 µM (inactive)
- GI50 (SF-539): > 100 µM (inactive)
- GI50 (SN12C): > 100 µM (inactive)
- GI50 (NCI/ADR-RES): > 100 µM (inactive)
- GI50 (A549): > 100 µM (inactive)
- GI50 (UACC-62): > 100 µM (inactive)
- GI50 (Malme-3M): > 100 µM (inactive)
- GI50 (OVCAR-8): > 100 µM (inactive)
- GI50 (M14): > 100 µM (inactive)
- GI50 (K562): > 100 µM (inactive)
- GI50 (SNB-19): > 100 µM (inactive)
